Measurements: patent EP0973746B1, “SUBSTITUTED 3-CYANO QUINOLINES” (Wyeth Holdings Corporation, priority 1997, dated 1998)
≈ marks a conversion by molar mass, not a printed value. Where “and” joins values, the source holds several entries; their conditions need not be identical. Equal values may be shown once. Read-outs that look alike come from different tables or passages of the source.

How the values were obtained:
MCF7 = experiment: Inhibition of cancer cell growth as measured by cell number, MCF7; type: cell-based, human; settings: Table 8; for IC50: Homo sapiens, MCF7, 48 h;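 as to all read-outs here: MCF7 was included as a line with little or no EGFR or HER2/neu expression, in contrast to the receptor-overexpressing lines of the panel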
From the text: (§1) The cell lines were chosen since they overexpressed epidermal growth factor receptor (EGFR) (i.e. A431) or HER2/neu (SKBR3), or had little to no expression of the these receptors (SW620, LOX, MCF7).

SW620 = experiment: Inhibition of cancer cell growth as measured by cell number, SW620; type: cell-based, human; settings: Homo sapiens, SW-620, 48 h;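 also: SW620 was included as a cell line with little or no EGFR or HER2/neu expression, in contrast to receptor-overexpressing lines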
From the text: as §1

SKBR3 = experiment: Inhibition of cancer cell growth as measured by cell number, SKBR3; type: cell-based, human; settings: Homo sapiens, Table 8;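 also: SK-BR-3 cells were selected as a line overexpressing HER2/neu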
From the text: as §1

A431 = experiment: Inhibition of cancer cell growth as measured by cell number, A431; type: cell-based, human; settings: Table 8; for IC50: Homo sapiens, A-431, 48 h;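 as to all read-outs here: human A431 line, picked because it overexpresses epidermal growth factor receptor (EGFR)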
From the text: as §1

[1] = target: recombinant human MEK 1 (MAPKK) and recombinant human ERK2 (MAPK); experiment: Mitogen Activated Protein Kinase (MAPK) assay, two component coupled MEK 1 / ERK2; type: biochemical; settings: separate entries for the same compound = evaluated more than one time;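 also: MEK 1-activated ERK2 phosphorylates MBP or Myc peptide with 33P-ATP, filter capture and scintillation counting, inhibitor preincubated with ERK2 30 min at 0 °C, inhibition relative to uninhibited control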
LOX = experiment: Inhibition of cancer cell growth as measured by cell number, LOX; type: cell-based, human; settings: Table 8; for IC50: Homo sapiens, LOX, 48 h;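 as to all read-outs here: LOX cells served as a line with low or absent EGFR and HER2/neu expression, in contrast to receptor-overexpressing lines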
From the text: as §1

[2] = target: T1, His-tagged cytoplasmic domain of EGFR (Homo sapiens, UniProt P00533); experiment: Inhibition of Epidermal Growth Factor Receptor Kinase (EGF-R) using recombinant enzyme; type: biochemical; settings: recombinant enzyme; RR-SRC peptide; average of the number of tests; read-out: IC50;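 also: radiometric kinase assay measuring radiolabeled phosphate transfer from ATP onto the peptide tyrosine by scintillation counting, control is reaction without compound, background subtracted, IC50 from dose-response curve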
T1 construct: containing the EGFR cDNA encoding amino acids 645 - 1186 preceded by Met-Ala-(His)6; made in house; host or cells: Sf9 cells, recombinant baculovirus vHcEGFR52
T1 sequence (P00533 669-1210): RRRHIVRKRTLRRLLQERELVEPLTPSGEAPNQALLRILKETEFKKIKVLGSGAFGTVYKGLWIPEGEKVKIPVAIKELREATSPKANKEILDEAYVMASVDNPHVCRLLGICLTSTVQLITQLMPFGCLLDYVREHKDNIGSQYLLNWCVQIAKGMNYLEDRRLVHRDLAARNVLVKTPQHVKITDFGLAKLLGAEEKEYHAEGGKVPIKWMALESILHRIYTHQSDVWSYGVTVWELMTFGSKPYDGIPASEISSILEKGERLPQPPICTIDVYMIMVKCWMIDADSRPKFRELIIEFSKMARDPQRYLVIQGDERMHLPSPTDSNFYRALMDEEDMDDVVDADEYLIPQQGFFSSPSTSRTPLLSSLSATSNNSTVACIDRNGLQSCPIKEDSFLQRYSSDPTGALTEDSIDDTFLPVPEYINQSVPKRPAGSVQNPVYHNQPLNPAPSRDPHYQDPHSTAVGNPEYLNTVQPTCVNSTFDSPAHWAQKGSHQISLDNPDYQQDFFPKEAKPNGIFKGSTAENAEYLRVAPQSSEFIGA

[3] = read-out: IC50 MCF7, cell number, Sulforhodamine B, 48 hours exposure
[4] = read-out: IC50 SW620, cell number, Sulforhodamine B, 48 hours exposure, Table 8
[5] = SK-BR-3, 48 h, read-out: IC50 SKBR3, cell number, Sulforhodamine B, 48 hours exposure
[6] = read-out: IC50 A431, cell number, Sulforhodamine B, 48 hours exposure
[7] = read-out: IC50 LOX, cell number, Sulforhodamine B, 48 hours exposure
[8] = cell number, Sulforhodamine B, 48 hours exposure
[9] = cell number, Sulforhodamine B, 48 hours exposure, read-out: IC50 A431
[10] = cell number, Sulforhodamine B, 48 hours exposure, read-out: IC50 MCF7
[11] = cell number, Sulforhodamine B, 48 hours exposure, Table 8, read-out: IC50 SW620
[12] = SK-BR-3, cell number, Sulforhodamine B, 48 hours exposure, read-out: IC50 SKBR3
[13] = cell number, Sulforhodamine B, 48 hours exposure, read-out: IC50 LOX

SMILES | IC50 (MCF7; [3]) [µg/mL] | IC50 (SW620; [4]) [µg/mL] | IC50 (SKBR3; [5]) [µg/mL] | IC50 (A431; [6]) [µg/mL] | IC50 [1] | IC50 (LOX; [7]) [µg/mL] | further results
COc1cc2ncc(C#N)c(Nc3cccc(F)c3)c2cc1OC [Example 35, 4-[(3-Fluorophenyl)amino]-6,7-dimethoxy-3-quinolinecarbonitrile] | 40.9 (≈ 126 µM) | 6.4 (≈ 19.8 µM) | 0.93 (≈ 2.88 µM) | – | – | – | IC50 (SW620; read-out: IC50 SW620, cell number, Sulforhodamine B, 48 hours exposure, Table 4): 9.57 µg/mL (≈ 29.6 µM)
COCC=CC(=O)Nc1ccc2ncc(C#N)c(Nc3cccc(Br)c3)c2c1 [Example 65, 4-Methoxy-but-2-enoic acid [4-(3-bromo-phenylamino)-3-cyano-quinolin-6-yl]-amide] | 84 (≈ 192 µM) | > 100 | 60 (≈ 137 µM) | 48 (≈ 110 µM) | 40 µM | 84 (≈ 192 µM) | –
CN(C)Cc1cc([N+](=O)[O-])cc2c(Nc3cccc(Br)c3)c(C#N)cnc12 [Example 108, 4-[(3-Bromophenyl)amino]-8-dimethylaminomethyl-6-nitro-3-quinolinecarbonitrile] | 7.97 (≈ 18.7 µM) | 14.6 (≈ 34.1 µM) | 6.34 (≈ 14.9 µM) | 6.6 (≈ 15.5 µM) | > 100 µM | 6.85 (≈ 16.1 µM) | –
CN(C)Cc1cc(N)cc2c(Nc3cccc(Br)c3)c(C#N)cnc12 [Example 109, 6-Amino-4-[(3-bromophenyl)amino]-8-dimethylaminomethyl-3-quinolinecarbonitrile] | 37.9 (≈ 95.7 µM) | 40.8 (≈ 103 µM) | 30.7 (≈ 77.4 µM) | 38.9 (≈ 98 µM) | – | 35.1 (≈ 88.5 µM) | –
CC#CC(=O)Nc1cc(CN(C)C)c2ncc(C#N)c(Nc3cccc(Br)c3)c2c1 [Example 110, N-{4-[(3-Bromophenyl)amino]-3-cyano-8-dimethylaminomethyl-6-quinolinyl} -2-butynamide] | – | 0.7 (≈ 1.51 µM) | 1.3 (≈ 2.81 µM) | 0.9 (≈ 1.95 µM) | 40 µM | 0.8 (≈ 1.73 µM) | –
N#Cc1cnc2ccc(N)cc2c1Nc1ccc(F)c(F)c1 [Example 155, 6-Amino-4-[(3.4-difluorophenyl)amino]-3-quinolinecarbonitrile] | 7.49 (≈ 25.3 µM) | 7.55 (≈ 25.5 µM) | 3.28 (≈ 11.1 µM) | 4.3 (≈ 14.5 µM) | – | 6.08 (≈ 20.5 µM) | –
N#Cc1cnc2ccc(N)cc2c1Nc1ccc(Sc2ccccc2)c(Cl)c1 [Example 158, 6-Amino-4-[(3-chloro-4-thiophenoxyphenyl)amino]-3-quinolinecarbonitrile] | 5.44 (≈ 13.5 µM) | 4.08 (≈ 10.1 µM) | 0.8 (≈ 1.99 µM) | 2.97 (≈ 7.37 µM) | – | 2.44 (≈ 6.06 µM) | –
N#Cc1cccc(Nc2c(C#N)cnc3ccc(N)cc23)c1 [Example 162, 6-Amino-4-[(3-cyanophenyl)amino]-3-quinolinecarbonitrile] | 16.4 (≈ 57.3 µM) | 33.5 (≈ 118 µM) | 7.15 (≈ 25.1 µM) | 6.87 (≈ 24.1 µM) | 35 µM | 8.13 (≈ 28.5 µM) | –
N#Cc1cccc(Nc2c(C#N)cnc3ccc([N+](=O)[O-])cc23)c1 [Example 163, 4-[(3-Cyanophenyl)amino]-6-nitro-3-quinolinecarbonitrile] | 17.4 (≈ 55.3 µM) | 47.3 (≈ 150 µM) | 7.28 (≈ 23.1 µM) | 7.02 (≈ 22.3 µM) | > 100 µM | 64.2 (≈ 204 µM) | –
C#Cc1cccc(Nc2c(C#N)cnc3ccc(N)cc23)c1 [Example 167, 6-Amino-4-[(3-ethynylphenyl)amino]-3-quinolinecarbonitrile] | 8.5 (≈ 29.9 µM) | 8.1 (≈ 28.5 µM) | 3.7 (≈ 13 µM) | 2.6 (≈ 9.14 µM) | > 100 µM | 5.3 (≈ 18.6 µM) | –
C#Cc1cccc(Nc2c(C#N)cnc3ccc([N+](=O)[O-])cc23)c1 [Example 168, 4-[(3-Ethynylphenyl)amino]-6-nitro-3-quinolinecarbonitrile] | 5.94 (≈ 18.9 µM) | 9.1 (≈ 29 µM) | 1.38 (≈ 4.39 µM) | 1.57 (≈ 5 µM) | 80 µM | 1.76 (≈ 5.6 µM) | –
CCN1CCN(CC#CC(=O)Nc2ccc3ncc(C#N)c(Nc4cccc(Br)c4)c3c2)CC1 [Example 188, N-[4-[(3-Bromophenyl)amino]-3-cyano-6-quinolinyl]-4-(N-ethylpiperazino)-2-butynamide] | 1.43 (≈ 2.76 µM) | – | – | 0.54 (≈ 1.04 µM) | – | – | IC50 A431 (A431; [8]): 0.4 µg/mL and 0.579 µg/mL; IC50 [2]: 0.001 µM; IC50 MCF7 (MCF7; [8]): 0.8 µg/mL (≈ 1.55 µM)
COCC#CC(=O)Nc1ccc2ncc(C#N)c(Nc3ccc(F)c(Cl)c3)c2c1 [Example 194, N-[4-[-(3-Chloro-4-fluorophenyl)amino]-3-cyano-6-quinolinyl]-4-methoxy-2-butynamide] | – | 0.2 (≈ 0.489 µM) | 0.2 (≈ 0.489 µM) | 0.1 (≈ 0.245 µM) | > 100 µM | – | IC50 [2]: 0.0017 µM
CCN(CC)CC=CC(=O)Nc1cc2c(Nc3ccc(F)c(Br)c3)c(C#N)cnc2cc1OC [Example 209, 4-Diethylamino-but-2-enoic acid [4-(3-bromo-4-fluorophenylamino)-3-cyano-7-methoxy-quinolin-6-yl]-amide] | – | 0.38 (≈ 0.722 µM) | 0.048 (≈ 0.0912 µM) | 0.113 (≈ 0.215 µM) | 9 µM | – | IC50 [2]: 0.005 µM
CCOc1cc2ncc(C#N)c(Nc3ccc(Sc4ccccc4)c(Cl)c3)c2cc1OCC [Example 254, 4-[3-Chloro-4-(phenylthio)phenylamino]-6,7-diethoxy-3-quinolinecarbonitrile] | 0.07 (≈ 0.147 µM) | 0.03 (≈ 0.063 µM) | 0.01 (≈ 0.021 µM) | 0.07 (≈ 0.147 µM) | – | 0.07 (≈ 0.147 µM) | –
CCOc1cc2ncc(C#N)c(N(C)c3ccccc3)c2cc1OCC [Example 258, 4-(N-Methylphenylamino)-6,7-diethoxy-3-quinolinecarbonitrile] | 7.87 (≈ 22.7 µM) | – | – | 4.67 (≈ 13.4 µM) | – | 6.12 (≈ 17.6 µM) | IC50 A431 (A431; [8]): 5.42 µg/mL (≈ 15.6 µM); IC50 MCF7 (MCF7; [8]): 9.69 µg/mL (≈ 27.9 µM); IC50 LOX (LOX; [8]): 10.72 µg/mL (≈ 30.9 µM)
CCOc1cc2ncc(C#N)c(Nc3ccc(F)cc3)c2cc1OCC [Example 260, 4-(4-fluorophenylamino)-6,7-diethoxy-3-quinolinecarbonitrile] | 9.98 (≈ 28.4 µM) | 0.32 (≈ 0.911 µM) | 0.08 (≈ 0.228 µM) | 0.06 (≈ 0.171 µM) | 55 µM | 0.26 (≈ 0.74 µM) | –
CCOc1cc2ncc(C#N)c(Nc3cccc(F)c3)c2cc1OCC [Example 263, 4-(3-Fluorophenylamino)-6,7-diethoxy-3-quinolinecarbonitrile] | – | – | – | – | 80 µM | – | IC50 (A431; [9]): 6.9 µg/mL (≈ 19.6 µM); IC50 (MCF7; [10]): 8.44 µg/mL (≈ 24 µM); IC50 (SW620; [11]): 5.79 µg/mL (≈ 16.5 µM); IC50 (SKBR3; [12]): 7.5 µg/mL (≈ 21.3 µM); IC50 (LOX; [13]): 5.66 µg/mL (≈ 16.1 µM)
COCCOc1cc2ncc(C#N)c(Nc3cccc(Br)c3)c2cc1OCCOC [Example 311, 4-[(3-Bromophenyl)amino]-6,7-bis(2-methoxyethoxy)-3-quinolinecarbonitrile] | – | 1 (≈ 2.12 µM) | 0.7 (≈ 1.48 µM) | – | 2 µM and 2.5 µM | 2.8 (≈ 5.93 µM) | –
COc1cc2c(Nc3ccc(O)cc3C)c(C#N)cnc2cc1OCCCN1CCOCC1 [Example 312, 4-(4-Hydroxy-2-methyl-phenylamino)-6-methoxy-7-(3-morpholin-4-yl-propoxy)-quinoline-3-carbonitrile] | – | – | – | – | > 100 µM | – | IC50 (A431; [9]): 0.491 µg/mL (≈ 1.09 µM); IC50 [2]: 0.05 µM; IC50 (SW620; [11]): 3.53 µg/mL (≈ 7.88 µM); IC50 (SKBR3; [12]): 2.25 µg/mL (≈ 5.03 µM)
CC(C)(C)[Si](C)(C)OCC#CC(=O)Nc1ccc2ncc(C#N)c(Nc3cccc(Br)c3)c2c1 [Example 331, N-[4-[(3-Bromophenyl)amino]-3-cyano-6-quinolinyl]-4-t-butyldimethylsiloxy-2-butynamide] | – | – | – | – | – | – | IC50 (A431; [9]): 0.03 µg/mL (≈ 0.056 µM); IC50 (MCF7; [10]): 0.44 µg/mL (≈ 0.822 µM); IC50 (SW620; [11]): 0.04 µg/mL (≈ 0.0747 µM); IC50 (SKBR3; [12]): 0.16 µg/mL (≈ 0.299 µM); IC50 (LOX; [13]): 0.04 µg/mL (≈ 0.0747 µM)
C=CC(=O)Nc1ccc2ncc(C#N)c(Nc3cccc(N(C)C)c3)c2c1 [Example 391, N-[3-Cyano-4-(3-dimethylaminophenylamino)quinolin-6-yl]acrylamide] | – | – | – | – | > 100 µM | – | IC50 (A431; [9]): 0.34 µg/mL (≈ 0.951 µM); IC50 (MCF7; [10]): 6.53 µg/mL (≈ 18.3 µM); IC50 (SW620; [11]): 5.23 µg/mL (≈ 14.6 µM); IC50 (SKBR3; [12]): 0.4 µg/mL (≈ 1.12 µM); IC50 (LOX; [13]): 0.1 µg/mL (≈ 0.28 µM)
